We go through 2 compounds from article PMC8518382, “Identification of a Bromodomain‐like Region in 15‐Lipoxygenase‐1 Explains Its Nuclear Localization” (Angewandte Chemie (International Ed. in English), 2021).

Several values for one entry are separate records, joined by “and”; a condition that tells them apart may be missing. Equal entries are not always repeated.

The target of one experiment is T1, 5-LOX (Homo sapiens, UniProt P09917).
T1 construct: the endogenous LOXs were captured on an anti‐LOX antibody precoated 96‐well plate; endogenous in cells; host or cells: A549 cell lysate
T1 sequence (P09917 1-674): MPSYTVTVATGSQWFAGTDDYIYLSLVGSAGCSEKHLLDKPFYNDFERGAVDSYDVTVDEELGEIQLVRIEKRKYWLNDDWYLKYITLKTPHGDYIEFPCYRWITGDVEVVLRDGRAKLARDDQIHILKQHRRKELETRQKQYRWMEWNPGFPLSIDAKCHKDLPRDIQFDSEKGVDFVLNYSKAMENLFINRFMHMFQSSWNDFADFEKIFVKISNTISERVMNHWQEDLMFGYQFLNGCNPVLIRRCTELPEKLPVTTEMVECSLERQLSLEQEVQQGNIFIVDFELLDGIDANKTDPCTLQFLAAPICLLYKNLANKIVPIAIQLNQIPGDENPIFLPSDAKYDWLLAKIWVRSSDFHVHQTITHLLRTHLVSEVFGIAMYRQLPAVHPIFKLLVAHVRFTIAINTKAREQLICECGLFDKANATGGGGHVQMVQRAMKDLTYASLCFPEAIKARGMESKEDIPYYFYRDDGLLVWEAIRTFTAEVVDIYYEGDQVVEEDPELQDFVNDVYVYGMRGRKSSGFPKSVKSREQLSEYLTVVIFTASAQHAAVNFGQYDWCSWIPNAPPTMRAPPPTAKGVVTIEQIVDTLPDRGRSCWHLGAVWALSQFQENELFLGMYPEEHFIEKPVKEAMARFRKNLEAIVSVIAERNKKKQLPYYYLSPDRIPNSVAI
Description: ABP-based ELISA assay with A549 cell lysate, 5-LOX. The format is biochemical. As for the experimental part:
(§1) A549 cell lysate was treated with a serial dilution of the respective inhibitor. Subsequently, samples were labeled by treatment with 1 μM of Labelox B for 1 min. […] Data are mean±s.d., n≥3 independent experiments. […]
(§2) 1.6. Immunoblotting Analysis […]
(§3) 1.7. ABPP-based LOX inhibitor specificity validation
(§4) A549 cells were lysed by RIPA buffer supplemented with 1x PIC. After sonication and centrifugation, the supernatant was collected, and the protein concentration was determined by a Pierce BCA Protein Assay Kit (Thermo Fisher Scientific, USA). The lysates were then diluted with PBS to 300 ng/µl and stored in -20°C. To label endogenous LOXs with Labelox B under the competition condition, 180 µl diluted lysates were incubated with 200 µl different LOX inhibitor solution (in PBS) with desired concentrations for 18 min to inhibit LOXs activity. Later, 20 µl of a 20 µM Labelox B (in PBS) was added and incubated shortly for 2 min, followed by adding 50 µl of a 0.5 M EDTA to stop the labeling reaction. The reaction mixture was 450 µl in total. Inhibitors and Labelox B were absent in positive and […]
(§5) negative control, respectively. To detect the competition labeling of Labelox B among different LOXs, a high-binding 96-well plate (Greiner, #M4561) was coated with 5-LOX (#ab169755, Abcam), 12-LOX […]
(§6) (1:500 dilution in PBS) for overnight at 4°C. After washing triply with 0.05%PBST, the plate was blocked with 2% (w/v) BSA in PBST. Subsequently, 100 µl of each reaction mixture was added to the LOX-antibody-coated wells. There are four LOX antibodies used for coating. Therefore, in total, 400 µl mixture is needed for each reaction. After one hour of incubation, LOXs were pulled down by antibodies accordingly. Next, 100 µl of HRP-conjugated streptavidin (1:2000 dilution in PBS, Thermo Fisher Scientific, USA) was added to each well to detect the D04 labeled LOXs among precipitated LOXs. After washing with PBST, 100 µl of mixed HRP substrate reagent (R&D Systems, Minneapolis, USA) was added, and the colorizing reaction was stopped by adding 100 µl of 1M sulfuric acid. The absorbance at […]

The next experiment concerns the target T2, 15-LOX-2 (Homo sapiens, UniProt O15296).
T2 construct: endogenous in cells; host or cells: A549 cell lysate
T2 sequence (O15296 1-676): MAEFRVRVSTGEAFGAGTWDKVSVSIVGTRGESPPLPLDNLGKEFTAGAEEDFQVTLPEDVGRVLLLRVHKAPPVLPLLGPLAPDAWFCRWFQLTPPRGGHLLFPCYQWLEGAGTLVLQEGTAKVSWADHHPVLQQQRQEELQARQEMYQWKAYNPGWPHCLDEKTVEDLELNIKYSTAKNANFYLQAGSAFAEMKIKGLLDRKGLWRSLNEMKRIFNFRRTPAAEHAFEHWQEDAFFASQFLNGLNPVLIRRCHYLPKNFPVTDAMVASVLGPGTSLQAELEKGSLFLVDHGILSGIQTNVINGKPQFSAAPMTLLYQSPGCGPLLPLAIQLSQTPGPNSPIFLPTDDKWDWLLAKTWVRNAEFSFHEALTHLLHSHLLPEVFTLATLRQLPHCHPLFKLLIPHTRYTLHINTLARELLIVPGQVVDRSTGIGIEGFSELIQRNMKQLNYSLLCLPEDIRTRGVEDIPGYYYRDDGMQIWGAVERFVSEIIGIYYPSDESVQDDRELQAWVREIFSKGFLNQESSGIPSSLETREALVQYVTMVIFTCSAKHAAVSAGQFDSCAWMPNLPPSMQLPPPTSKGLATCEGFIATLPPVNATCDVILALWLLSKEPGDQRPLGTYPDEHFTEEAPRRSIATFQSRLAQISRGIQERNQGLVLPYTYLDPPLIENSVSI
Description: ABP-based ELISA assay with A549 cell lysate, 15-LOX-2. The format is biochemical. As for the experimental part: as §1, §2, §3, §4
(1 picture or pasted object on this page, not shown here) […]
as §5
as §6, with “After washing with PBST, 100 µl of mixed HRP substrate reagent (R&D Systems, Minneapolis, USA) was added, and the colorizing reaction was stopped by adding 100 µl of 1M sulfuric acid.” left out

Turning to `c1ccc2c(c1)SCc1c-2[nH]c2ccccc12` [PD146176], the “HillSlope Value” at 5-LOX is listed as -0.99; on 15-LOX-2, -0.88. In addition, the IC50 against 5-LOX (1 μM Labelox B) was ~17 µM and 14.8 µM; on 15-LOX-2 (1 μM Labelox B), > 100 µM and 123 µM.

Take `O=c1cc(-c2ccccc2)oc2cc(O)c(O)c(O)c12` [Baicalein]: the “HillSlope Value” on 5-LOX was -0.26; on 15-LOX-2, -0.34.
